Laboratory results: US20050049276A1, “Imidazopyridines and triazolopyridines” (WARNER-LAMBERT COMPANY, LLC, priority 2003, published 2005)
Where a name gives a salt, the structure may show the parent alone. Read-outs that look alike come from different tables or passages of the source.

Key:
[1] = test system: MEK (phosphorylation of MAP kinase (ERK) in murine colon 26 (C26) carcinoma cells); experiment: Cellular inhibition of ERK phosphorylation, pERK ELISA format (C26ELSA); format: cell-based; details: Mus musculus, 1 h, one hour treatment
Text: Otherwise, percent inhibitions at measured concentrations are reported.

[2] = test system: MEK (phosphorylation of MAP kinase (ERK) in murine colon 26 (C26) carcinoma cells); details: read-out: C26CPA1 IC50, one hour treatment
Procedure: Since ERK1 and ERK2 represent the only known substrates for MEK1 and MEK2, the measurement of inhibition of ERK phosphorylation in cells provides direct read out of cellular MEK inhibition by the compounds of the invention. Detection of phosphorylation of ERK was carried out either by Western blot or ELISA format. […] Supernatants were then subjected to gel electrophoresis and hybridized to a primary antibody recognizing dually phosphorylated ERK1 and ERK2. To evaluate total MAPK levels, blots were subsequently ‘stripped’ and re-probed with a 1:1 mixture of polyclonal antibodies recognizing unphosphorylated ERK1 and ERK2. For pERK ELISA assay, pERK TiterZyme Enzyme immunometric Assay kits were acquired from Assay Designs, Inc (Ann Arbor, Mich.). Briefly, cells were harvested in lysis solution containing 50 mM β-glycerophosphate, 10 mM HEPES, pH7.4, 70 mM NaCl, 2 mM EDTA and 1% SDS and protein lysates were diluted 1:15 with supplied Assay buffer prior to the execution of the assay. The subsequent steps were carried out essentially as recommended by the manufacturer.

For CCOC(=O)c1cn2ccnc2cc1Nc1ccc(I)cc1F [Example 1, 7-(2-Fluoro-4-iodo-phenylamino)-imidazo[1,2-a]pyridine-6-carboxylic acid ethyl ester], the melting point was 132 to 134 °C.
For NC(=O)c1cn2ccnc2cc1Nc1ccc(I)cc1F [Example 3, 7-(2-Fluoro-4-iodo-phenylamino)-imidazo[1.2-a]pyridine-6-carboxylic acid amide], the IC50 [1] was 1.9 nM.
O=C(NCCO)C1=CN2CCN=C2C=C1Nc1ccc(I)cc1F [Example 4, 7-(2-Fluoro-4-iodo-phenylamino)-2,3-dihydro-imidazo[1.2-a]pyridine-6-carboxylic acid (2-hydroxy-ethyl)-amide; hydroiodide salt] showed an IC50 [2] of 177 nM.
For CCOC(=O)c1cn2c(C)nnc2cc1Nc1ccc(I)cc1F [Example 5, 7-(2-Fluoro-4-iodo-phenylamino)-3-methyl-[1,2,4]triazolo[4.3-a]pyridine-6-carboxylic acid ethyl ester], the melting point was 201 to 204 °C.
With Cc1nnc2cc(Nc3ccc(I)cc3F)c(C(N)=O)cn12 [Example 6, 7-(2-Fluoro-4-iodo-phenylamino)-3-methyl-[1,2,4]triazolo[4,3-a]pyridine-6-carboxylic acid amide] the melting point was 300 to 310 °C (dec.).
